Values of other authors as cited in patent US20140275235A1, “Treatment of Proliferative Disorders” (priority 2013, published 2014).

Conditions: literature refs 11, 12

Compound: C[S+]([O-])CCCCN=C=S (centres unmarked) [SFN, sulforaphane]
- Bioavailability: 80%
- Time to peak plasma levels: ≤ 2 h
